Here are results for one molecule from patent US8609699B2, “Oxotetrahydrofuran-2-yl-benzimidazole derivative” (MSD K.K., priority 2008, dated 2013).

By EC50 is commonly meant the concentration at which the effect is half-maximal.

The test system of one assay is male beagles. The assay can be described thus: Antihyperglycemic effect in fasted beagles (plasma glucose AUC). Conditions: compared to control group up to 4 hours after administration, fasted overnight. Format: in vivo. The method, then: From the cephalic vein of male beagles fasted overnight (9.4-14.4 kg body weight), blood was collected prior to administration, followed by oral administration of the test drug suspended in a 0.5% methyl cellulose solution (0.3 and 1 mg/kg), while a 0.5% methyl cellulose solution was orally administered to the control group. The blood was collected at 0.5, 1, 2, and 4 hours after the administration of the test drug. Plasma was separated from the obtained blood to determine a plasma glucose level using Determina-GL-E (Kyowa Medics).

The subject of assay [1] is high-fat diet loaded mice. The assay can be described thus: Antihyperglycemic effect in high-fat diet loaded mice. Conditions: oral 10 mg/kg in 0.5% methyl cellulose; 1 hour after administration; free-feeding mice. Format: in vivo, C57BL/6J mice. How it is done:
Six-week-old male C57BL/6J mice were fed a high-fat diet (RESEARCH DIETS, D12492) for ≧9 weeks to produce the high-fat diet loaded mice (>160 mg/dl).
The slight tail tips of the high-fat diet loaded mice (18-21 weeks old, n=6) under the conditions of free-feeding and water intake were cut with scissors to collect their blood. The collected blood was used to determine blood glucose levels prior to the administration of a compound by a blood glucose level measuring apparatus (One Touch Ultra (Johnson. Johnson)), followed by oral administration of the compound suspended in a 0.5% methyl cellulose solution at 10 mg/kg, while a 0.5% methyl cellulose solution was orally administered to the control group. The blood glucose levels were determined using the blood glucose level measuring apparatus every 1 hour after the administration of the test drug solutions.
The values of the decreases in blood glucose (differences between the control group and the compound-treated group) at 1 hour after administration were shown in Table 7 described below.
The values of the decreases in blood glucose (differences between the control group and the compound-treated group) at 1 hour after administration of the compounds according to Example 1 and Example 7 were shown in Table 7 described below.

For assay [2], the target named is T1, recombinant human liver GK (Homo sapiens, UniProt P35557).
T1 construct: made in house; host or cells: E. coli
T1 sequence (P35557 1-466 isoform P35557-2): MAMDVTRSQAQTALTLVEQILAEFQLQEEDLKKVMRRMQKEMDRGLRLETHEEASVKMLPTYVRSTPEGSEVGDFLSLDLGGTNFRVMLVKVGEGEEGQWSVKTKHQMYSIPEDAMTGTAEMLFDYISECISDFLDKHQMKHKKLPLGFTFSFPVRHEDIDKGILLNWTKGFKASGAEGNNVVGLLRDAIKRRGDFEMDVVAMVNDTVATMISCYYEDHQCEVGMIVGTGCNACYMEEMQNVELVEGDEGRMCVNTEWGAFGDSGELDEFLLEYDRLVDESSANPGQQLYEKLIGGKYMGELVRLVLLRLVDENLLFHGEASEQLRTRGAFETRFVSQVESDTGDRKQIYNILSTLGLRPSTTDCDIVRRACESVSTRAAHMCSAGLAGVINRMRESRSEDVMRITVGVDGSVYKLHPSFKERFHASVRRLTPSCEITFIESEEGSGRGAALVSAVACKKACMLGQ
The assay can be described thus: Glucokinase-activating effect (Thio-NADH, G6PDH-coupled assay). In kind it is biochemical. Conditions: final glucose 2.5 mM, 30° C, separated enantiomers. From the text:
The excellent glucokinase-activating effect of the compounds of formula (I) may be determined by a method described in literature (for example, Diabetes, Vol. 45, pp. 1671-1677, 1996), or in accordance with it.
The glucokinase activity may be determined not by directly measuring glucose-6-phosphate but by measuring the level of Thio-NADH, which is produced when a reporter enzyme, glucose-6-phosphate dehydrogenase produces phosphogluconolactone from glucose-6-phosphate, and based on the level, the degree of glucokinase activation by the compound tested may be determined.
In this assay, used was a recombinant human liver GK, which was expressed by E. coli as a FLAG fusion protein therein and was purified by ANTIFLAG M2 AFFINITY GEL (Sigma).
Using a flat-bottomed 96-well plate, the assay was carried out at 30° C. 69 μl of an assay buffer (25 mM Hepes Buffer/pH=7.2, 2 mM MgCl2, 1 mM ATP, 0.5 mM TNAD, 1 mM dithiothreitol) was put into the plate, and 1 μl of a DMSO solution of the compound or DMSO alone as a control was added thereto. Next, 20 μl of an enzyme mixture (FLAG-GK, 20 U/ml G6PDH) cooled in ice was added to it, and 10 μl of a substrate, 25 mM glucose was added to it, and the reaction was initiated (final glucose concentration=2.5 mM).
After the start of the reaction, the increase in the absorbance at 405 nm was measured for 12 minutes at intervals of 30 seconds, and the increase for the first 5 minutes was used for assessing the compound tested. FLAG-GK was added so that the absorbance increase after 5 minutes in the presence of 1% DMSO could be from 0.04 to 0.06.
The OD level of the DMSO control was set as 100%; and the OD level of the test compound at different concentrations was determined. From the OD level at each concentration, Emax (%) and EC50 (μM) were computed and used as the index of the GK-activating potency of the compound.
The GK activating effect of the compounds of the invention was measured according to the method as above, and the results are shown in Table 5 below.

Take `CN(C)C(=O)Cc1ccc(Oc2cc3nc(-c4ccccn4)[nH]c3cc2C2CCC(=O)O2)cc1` (single isomer, unassigned) [Example 7 B, N,N-dimethyl-2-(4-{[6-(5-oxotetrahydrofuran-2-yl)-2-pyridin-2-yl-1H-benzimidazol-5-yl]oxy}phenyl)acetamide]: the entries for the “Rate of decrease (%) in plasma glucose level AUC” value in the assay on male beagles (oral 0.3 mg/kg) and in the assay with male beagles (oral 1.0 mg/kg) were 12.4% and 15.6%, respectively. Besides, the “Difference from control group (Δmg/dl), decrease in blood glucose” value in assay [1] was −146 Δmg/dl. Further, in assay [2] (OD level of DMSO control = 100%, listed as 7 B), the “Emax(%)” value is 972%. In addition, in assay [2], the EC50 is 0.29 µM.
